Counter-ions that a name gives are not always drawn. Like-named read-outs stand apart in the source and are kept apart here.
Molecular target: T1, human histamine H4 receptor (Homo sapiens, UniProt Q9H3N8)
T1 construct: expressed in transfected cells; host or cells: SK-N-MC cells or COS7 cells, transiently transfected; cell membranes used
Assay: Binding Assay on Recombinant Human Histamine H4 Receptor
Description: Binding Assay on Recombinant Human Histamine H4 Receptor
SK-N-MC cells or COS7 cells were transiently transfected with pH4R and grown in 150 cm^2 tissue culture dishes. Cells were washed with saline solution, scraped with a cell scraper and collected by centrifugation (1000 rpm, 5 min). Cell membranes were prepared by homogenization of the cell pellet in 20 mM Tris-HCl with a polytron tissue homogenizer for 10 sec at high speed. Homogenate was centrifuged at 1000 rpm for 5 min at 4° C. […] The final pellet was resuspended in 50 mM Tris-HCl. Cell membranes were incubated with ^3H-histamine (5-70 nM) in the presence or absence of excess histamine (10,000 nM). […] Membranes were harvested by rapid filtration over Whatman GF/C filters and washed 4 times with ice-cold 50 mM Tris HCl. Filters were then dried, mixed with scintillant and counted for radioactivity. SK-N-MC or COS7 cells expressing human histamine H4 receptor were used to measure the affinity of binding of other compounds and their ability to displace ^3H-ligand binding by incubating the above-described reaction in the presence of various concentrations of inhibitor or compound to be tested.

[1] = competition binding with 3H-histamine (5 nM), membranes of SK-N-MC or COS7 cells expressing human H4 receptor, Cheng-Prusoff, KD 5 nM, average of results obtained, read-out: Ki

T1 sequence (Q9H3N8 whole entry): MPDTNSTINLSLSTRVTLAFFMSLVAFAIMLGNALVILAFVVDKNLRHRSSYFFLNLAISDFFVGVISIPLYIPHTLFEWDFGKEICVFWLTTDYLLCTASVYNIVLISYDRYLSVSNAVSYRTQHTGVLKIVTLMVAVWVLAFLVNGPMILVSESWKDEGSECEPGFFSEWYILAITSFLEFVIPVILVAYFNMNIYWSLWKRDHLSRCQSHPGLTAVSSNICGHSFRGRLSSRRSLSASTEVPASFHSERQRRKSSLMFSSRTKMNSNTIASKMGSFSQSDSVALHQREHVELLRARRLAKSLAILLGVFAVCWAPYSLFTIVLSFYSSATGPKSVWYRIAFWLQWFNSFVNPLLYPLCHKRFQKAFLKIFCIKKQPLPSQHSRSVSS

| Structure (SMILES) | Ki [1] [nM] | Ki [nM] |
| --- | --- | --- |
| Nc1nc(N2CCNCC2)c2oc3c(Cl)cc(Cl)cc3c2n1 [Example 31, 6,8-Dichloro-4-piperazin-1-yl-benzo[4,5]furo[3,2-d]pyrimidin-2-ylamine trifluoroacetic acid salt] | 140 | – |
| Nc1nc(N2CCCNCC2)c2oc3c(Cl)cc(Cl)cc3c2n1 [Example 32, 6,8-Dichloro-4-[1,4]diazepan-1-yl-benzo[4,5]furo[3,2-d]pyrimidin-2-ylamine trifluoroacetic acid salt] | 160 | – |
| Nc1nc(N2C[C@@H]3C[C@H]2CN3)c2oc3ccccc3c2n1 [Example 33, (S,S)-4-(2,5-Diaza-bicyclo[2.2.1]hept-2-yl)-benzo[4,5]furo[3,2-d]pyrimidin-2-ylamine trifluoroacetic acid salt] | 200 | – |
| CC(C)N1CCN(c2nc(N)nc3c2oc2ccc(Cl)cc23)CC1 [Example 34, 8-Chloro-4-(4-isopropyl-piperazin-1-yl)-benzo[4,5]furo[3,2-d]pyrimidin-2-ylamine trifluoroacetic acid salt] | 240 | – |
| CN(C)C1CCN(c2nc(N)nc3c2oc2c(Cl)cc(Cl)cc23)C1 (stereo not shown) [Example 35, 6,8-Dichloro-4-(3-dimethylamino-pyrrolidin-1-yl)-benzo[4,5]furo[3,2-d]pyrimidin-2-ylamine trifluoroacetic acid salt] | 380 | – |
| Nc1nc(N2CCN3CCCCC3C2)c2oc3ccccc3c2n1 (stereo not shown) [Example 36, 4-(Octahydro-pyrido[1,2-a]pyrazin-2-yl)-benzo[4,5]furo[3,2-d]pyrimidin-2-ylamine trifluoroacetic acid salt] | 680 | – |
| Nc1nc(N2CCN3CCCCC3C2)c2oc3c(Cl)cc(Cl)cc3c2n1 (stereo not shown) [Example 37, 6,8-Dichloro-4-(octahydro-pyrido[1,2-a]pyrazin-2-yl)-benzo[4,5]furo[3,2-d]pyrimidin-2-ylamine trifluoroacetic acid salt] | 790 | – |
| Nc1nc(N2C[C@@H]3C[C@H]2CN3)c2oc3c(Cl)cc(Cl)cc3c2n1 [Example 38, (S,S)-6,8-Dichloro-4-(2,5-diaza-bicyclo[2.2.1]hept-2-yl)-benzo[4,5]furo[3,2-d]pyrimidin-2-ylamine trifluoroacetic acid salt] | > 10000 | – |
| CN[C@@H]1CCN(c2nc(N)nc3c2oc2ccc(F)cc23)C1 [Example 39, (R)-8-Fluoro-4-(3-methylamino-pyrrolidin-1-yl)-benzo[4,5]furo[3,2-d]pyrimidin-2-ylamine trifluoroacetic acid salt] | 2.3 | – |
| Nc1nc(N2CCN3CCCC3C2)c2oc3ccc(F)cc3c2n1 (stereo not shown) [Example 40, 8-Fluoro-4-(hexahydro-pyrrolo[1,2-a]pyrazin-2-yl)-benzo[4,5]furo[3,2-d]pyrimidin-2-ylamine trifluoroacetic acid salt] | – | 44 |
| CN1CCC(N(C)c2nc(N)nc3c2oc2ccc(F)cc23)C1 (stereo not shown) [Example 41, 8-Fluoro-N^4-methyl-N^4-(1-methyl-pyrrolidin-3-yl)-benzo[4,5]furo[3,2-d]pyrimidine-2,4-diamine trifluoroacetic acid salt] | 110 | – |
| CN[C@@H]1CCN(c2nc(N)nc3c2oc2ncccc23)C1 [Example 42, (R)-8-(3-Methylamino-pyrrolidin-1-yl)-9-oxa-1,5,7-triaza-fluoren-6-ylamine] | 71 | – |
| Nc1nc(N2CC3CCCNC3C2)c2oc3ncccc3c2n1 (stereo not shown) [Example 43, 8-(Octahydro-pyrrolo[3,4-b]pyridin-6-yl)-9-oxa-1,5,7-triaza-fluoren-6-ylamine] | – | 87 |
| CN1CCN(c2nc(N)nc3c2sc2ccccc23)CC1 [Example 44, 4-(4-Methyl-piperazin-1-yl)-benzo[4,5]thieno[3,2-d]pyrimidin-2-ylamine] | 29 | – |
| Nc1nc(N2CC3CCCNC3C2)c2sc3ccc(Br)cc3c2n1 (stereo not shown) [Example 45, 8-Bromo-4-(octahydro-pyrrolo[3,4-b]pyridin-6-yl)-benzo[4,5]thieno[3,2-d]pyrimidin-2-ylamine hydrochloride salt] | – | 4.8 |
| Nc1nc(N2CC3CCCNC3C2)c2sc3cc(Br)ccc3c2n1 (stereo not shown) [Example 46, 7-Bromo-4-(octahydro-pyrrolo[3,4-b]pyridin-6-yl)-benzo[4,5]thieno[3,2-d]pyrimidin-2-ylamine trifluoroacetic acid salt] | – | 28 |
| CN[C@H]1CCN(c2nc(N)nc3c2sc2ccc(Br)cc23)C1 [Example 47, (S)-8-Bromo-4-(3-methylamino-pyrrolidin-1-yl)-benzo[4,5]thieno[3,2-d]pyrimidin-2-ylamine hydrochloride salt] | 100 | – |

| Structure (SMILES) | Ki [1] [nM] | Ki [nM] |
| --- | --- | --- |
| CN[C@@H]1CCN(c2nc(N)nc3c2sc2ccc(Br)cc23)C1 [Example 48, (R)-8-Bromo-4-(3-methylamino-pyrrolidin-1-yl)-benzo[4,5]thieno[3,2-d]pyrimidin-2-ylamine hydrochloride salt] | 2.1 | – |
| Nc1nc(N2C[C@@H]3C[C@H]2CN3)c2sc3ccc(Br)cc3c2n1 [Example 49, (S,S)-8-Bromo-4-(2,5-diaza-bicyclo[2.2.1]hept-2-yl)-benzo[4,5]thieno[3,2-d]pyrimidin-2-ylamine hydrochloride salt] | – | 350 |
| CN1CCN(c2nc(N)nc3c2sc2ccc(Br)cc23)CC1 [Example 50, 8-Bromo-4-(4-methyl-piperazin-1-yl)-benzo[4,5]thieno[3,2-d]pyrimidin-2-ylamine hydrochloride salt] | 1 | – |
| CN[C@H]1CCN(c2nc(N)nc3c2sc2cc(C(F)(F)F)ccc23)C1 [Example 51, (S)-4-(3-Methylamino-pyrrolidin-1-yl)-7-trifluoromethyl-benzo[4,5]thieno[3,2-d]pyrimidin-2-ylamine trifluoroacetic acid salt] | > 10000 | – |
| CN[C@@H]1CCN(c2nc(N)nc3c2sc2cc(C(F)(F)F)ccc23)C1 [Example 52, (R)-4-(3-Methylamino-pyrrolidin-1-yl)-7-trifluoromethyl-benzo[4,5]thieno[3,2-d]pyrimidin-2-ylamine trifluoroacetic acid salt] | 120 | – |
| Nc1nc(N2C[C@@H]3C[C@H]2CN3)c2sc3cc(C(F)(F)F)ccc3c2n1 [Example 53, (S,S)-4-(2,5-Diaza-bicyclo[2.2.1]hept-2-yl)-7-trifluoromethyl-benzo[4,5]thieno[3,2-d]pyrimidin-2-ylamine trifluoroacetic acid salt] | > 10000 | – |
| CN1CCN(c2nc(N)nc3c2sc2cc(C(F)(F)F)ccc23)CC1 [Example 54, 4-(4-Methyl-piperazin-1-yl)-7-trifluoromethyl-benzo[4,5]thieno[3,2-d]pyrimidin-2-ylamine trifluoroacetic acid salt] | 440 | – |
| CN1CCN(c2nc(N)nc3c2sc2cc(Br)ccc23)CC1 [Example 55, 7-Bromo-4-(4-methyl-piperazin-1-yl)-benzo[4,5]thieno[3,2-d]pyrimidin-2-ylamine trifluoroacetic acid salt] | 43 | – |
| CN[C@@H]1CCN(c2nc(N)nc3c2sc2cc(Br)ccc23)C1 [Example 56, (R)-7-Bromo-4-(3-methylamino-pyrrolidin-1-yl)-benzo[4,5]thieno[3,2-d]pyrimidin-2-ylamine trifluoroacetic acid salt] | 25 | – |
| CN[C@H]1CCN(c2nc(N)nc3c2sc2cc(Br)ccc23)C1 [Example 57, (S)-7-Bromo-4-(3-methylamino-pyrrolidin-1-yl)-benzo[4,5]thieno[3,2-d]pyrimidin-2-ylamine trifluoroacetic acid salt] | 150 | – |
| Nc1nc(N2CC3CCCNC3C2)c2sc3cc(C(F)(F)F)ccc3c2n1 (stereo not shown) [Example 58, 4-(Octahydro-pyrrolo[3,4-b]pyridin-6-yl)-7-trifluoromethyl-benzo[4,5]thieno[3,2-d]pyrimidin-2-ylamine trifluoroacetic acid salt] | 300 | – |
| CN[C@@H]1CCN(c2nc(N)nc3c2sc2cc(Cl)ccc23)C1 [Example 60, (R)-7-Chloro-4-(3-methylamino-pyrrolidin-1-yl)-benzo[4,5]thieno[3,2-d]pyrimidin-2-ylamine trifluoroacetic acid salt] | 5.2 | – |
| CN[C@H]1CCN(c2nc(N)nc3c2sc2cc(Cl)ccc23)C1 [Example 61, (S)-7-Chloro-4-(3-methylamino-pyrrolidin-1-yl)-benzo[4,5]thieno[3,2-d]pyrimidin-2-ylamine trifluoroacetic acid salt] | 33 | – |
| Nc1nc(N2C[C@@H]3C[C@H]2CN3)c2sc3cc(Cl)ccc3c2n1 [Example 62, (S,S)-7-Chloro-4-(2,5-diaza-bicyclo[2.2.1]hept-2-yl)-benzo[4,5]thieno[3,2-d]pyrimidin-2-ylamine trifluoroacetic acid salt] | – | 880 |
| CN1CCN(c2nc(N)nc3c2sc2cc(Cl)ccc23)CC1 [Example 63, 7-Chloro-4-(4-methyl-piperazin-1-yl)-benzo[4,5]thieno[3,2-d]pyrimidin-2-ylamine trifluoroacetic acid salt] | 19 | – |
| Nc1nc(N2CC3CCCNC3C2)c2sc3ccc(Cl)cc3c2n1 (stereo not shown) [Example 64, 8-Chloro-4-(octahydro-pyrrolo[3,4-b]pyridin-6-yl)-benzo[4,5]thieno[3,2-d]pyrimidin-2-ylamine trifluoroacetic acid salt] | – | 5 |
| CN[C@H]1CCN(c2nc(N)nc3c2sc2ccc(Cl)cc23)C1 [Example 65, (S)-8-Chloro-4-(3-methylamino-pyrrolidin-1-yl)-benzo[4,5]thieno[3,2-d]pyrimidin-2-ylamine trifluoroacetic acid salt] | 100 | – |

— patent US8030321B2, “Benzofuro- and benzothienopyrimidine modulators of the histamine H4 receptor” (Janssen Pharmaceutica, NV, priority 2006, dated 2011)
